# Patent US20100003287A1, “Compositions and Methods Relating to Treatment of Cancer and Infectious Diseases” (THE PROVOST, FELLOWS AND SCHOLARS OF THE COLL. OF THE HOLY …, priority 2005, published 2010)
# Key:
# B16 tumour cells [1] = assay: Direct tumour therapy with CpG and Celecoxib; type: in vivo, C57BL/6 mice; conditions: CpG 20 μg, Celecoxib 500 μg or both s.c. at tumour site, days 3, 5 and 7
# Experimental: C57BL/6 mice were challenged with 2×10^5 tumour cells s.c. and injected s.c. on days 3, 5 and 7 with either CpG (10 or 20 μg), the Cox-2 inhibitor Celecoxib (100 or 500 μg) or a combination of both at the tumour site. Mice were routinely monitored for tumour growth and survival. Tumour size was measured in two dimensions by callipers and determined by the following formula: (width^2×length)×π/6 where width is the lesser value. Mice were killed when tumour a length measured greater than 15 mm.
# Mice were routinely monitored for tumour growth (FIG. 19).
# Tumour volumes were routinely monitored (FIG. 20).
# C57BL/6 mice were challenged with 2×10^5 tumour cells s.c. and injected s.c. on days 3, 5 and 7 with either CpG (20 μg), the Cox-2 inhibitor Celecoxib (500 μg) or a combination of both at the tumour site. Mice were routinely monitored for tumours and survival (FIG. 21).
# [2] = system: IFN-gamma- and IL-10-secreting T cells; assay: DC transfer experiment (KLH, CpG and inhibitors), T cell responses in vivo; design: species or system C57BL/6 mice; conditions: DC with KLH 5 μg, CpG 5 μg and inhibitors (NS-398 5 μM, SB203580 1 μM, U0126 5 μM) into footpad; day 5 cells restimulated with KLH
# Experimental: 2.5×10^5 treated cells were injected into each footpad. Popliteal lymph nodes and spleens were removed after 5 days, and single cell suspensions were restimulated with KLH (2, 10, 50 μg/ml). S/N were removed after 3 days, and aliquots were measured for IFN-gamma and IL-10 by ELISA.
# 2.5×10^5 treated cells were injected into each footpad of 57BL-6 mice. Popliteal lymph nodes and spleens were removed after 5 days, and single cell suspensions were restimulated with KLH (2, 10, 50 μg/ml). Supernatants were removed after 3 days, and IFN-gamma and IL-10 concentrations quantified by ELISA (FIG. 13).
# bone marrow-derived DC [3] = assay: CpG-stimulated DC with Cox-2 inhibitor NS-398, cytokine ELISA; type: cell-based, C57BL/6 mice
# Experimental: (§1) Bone-marrow derived immature DC (BMDC) were generated by cultivation of extracted bone marrow cells with GM-CSF (40 ng/ml) for 10 days. BMDC from either BALB/c or C57BL/6 mice were incubated with 1 ng/ml-10 μg/ml of the TLR agonists, Pam3CSK4, Zymosan, LPS, Flagellin, PolylC, CpG-OCDN or medium only.
# bone marrow-derived DC [4] = assay: CpG-stimulated DC with Cox-2 inhibitor NS-398, cytokine mRNA RT-PCR; type: cell-based, C57BL/6 mice
# CD80 on CD11c+ DC = assay: CD80 expression on DC (cytofluorometric analysis); type: cell-based; conditions: HSP70 vaccine 5 mg/ml, NS398 5 mM, 24 hours, gated on CD11c+
# Experimental: Bone marrow derived DC were incubated with medium only (Control), HSP70 vaccine (5 mg/ml), the Cox-2 inhibitor NS398 (5 mM), HSP70 and Cox-2 inhibitor or LPS (10 ng/ml). After 24 hours cells were labelled with anti-CD80 and CD11C antibodies and cytofluorometric analysis performed. Results represent mean fluorescence intensity (MFI) on cells that were gated on the CD11c+ DC population (FIG. 24).
# [5] = system: PGE2 production by dendritic cells; assay: TLR agonist induced PGE2 production by DC (ELISA); type: cell-based; conditions: 24 hours
# Experimental: Bone marrow-derived dendritic cells (DC) were stimulated in vitro with CpG (5 μg) or the ERK inhibitor, U0126 (5 μM), or both for 24 hours. Supernatants were removed and PGE2 concentrations determined by ELISA. **p<0.01 CpG+p38 inhibitor versus CpG by ANOVA (FIG. 25).
# Bone marrow-derived DC were stimulated with CpG (5 μg) alone or in the presence of the Cox-2 inhibitor, NS-398. After 24 hours, supernatants were removed and concentrations of PGE2 (FIG. 26(a)) were determined by ELISA. *p<0.05 CpG+p38 inhibitor versus CpG by ANOVA.
# Supernatants were removed and PGE2 concentrations determined by ELISA. *p<0.05 CpG+p38 inhibitor versus CpG by ANOVA (FIG. 27).
# [6] = system: CD4+ T cells from D011.10 OVA-TCR Tg mice; assay: In vitro activation of OVA-TCR T cells with modulated DC; type: cell-based, BALB/c mice; conditions: DC pulsed with OVA peptide 5 μg, CpG 10 μg alone or with SB203580 1 or 5 μM, 24 h; T cells:DC 10:1
# Experimental: DC from BALB/c were incubated with OVA Class II peptide (5 μg). […] D011.10 OVA-TCR T cells were then added to the BMDC (10:1). Supernatants were removed after 3 and 11 days, and aliquots were measured for IL-10-and IFN-gamma by ELISA.
# Bone marrow-derived DC from BALB/c were incubated with OVA Class II peptide (5 μg). […] Purified CD4+ T cells from D011.10 OVA-TCR Tg mice were stimulated with the DC (10:1) and supernatants were removed 3 days after antigen stimulation and IL-10 and IFNgamma quantified by ELISA (FIG. 12).
# bone marrow-derived DC [7] = assay: Cytokines from DC treated with B16 tumour vaccine, CpG and p38 inhibitor (ELISA); type: cell-based; conditions: DC with heat shocked and irradiated B16 cells 4 hours, CpG 5 μg, SB 203580 5 μM, 24 hours
# Experimental: Supernatants were removed after 24 hours and IL-10, IL-12p40, IL-12p70 and IL-23 concentrations were determined by ELISA. *p<0.05; ***p<0.0001, CpG+p38 inhibitor versus GpG by ANOVA.
# B16 tumour cells [8] = assay: Therapeutic DC vaccine pulsed with B16 cells with or without CpG and p38 inhibitor; type: in vivo, C57BL/6 mice; conditions: for protective efficacy of tumour vaccine (tumour volumes): 5×10^5 DC days 3, 10 and 17
# Text: Tumour growth was routinely monitored. Results represent tumour volumes for individual mice (FIG. 29).
# Tumour growth was routinely monitored. Results represent tumour volumes for individual mice (FIG. 30).
# Mice were routinely monitored for survival. Numbers in parentheses represent statistical difference versus control group (FIG. 31).
# Bordetella pertussis = assay: Acellular pertussis vaccine, B. pertussis aerosol challenge, lung CFU counts; type: in vivo; conditions: mice, i.p. 0 and 4 weeks, 0.02 human dose vaccine, CpG 5 μg, SB203580 50 μM; aerosol challenge 2 weeks later
# spleen mononuclear cells = assay: Spleen cell IFN-gamma and IL-10 after acellular pertussis vaccination; type: in vivo, mice; conditions: added to acellular pertussis vaccine with CpG 5 μg, SB203580 50 μM
# IL-1 beta in lungs = assay: Lung IL-1 beta after B. pertussis challenge of immunized mice; type: in vivo; conditions: added to acellular pertussis vaccine with CpG 5 μg; SB203580 50 μM; 4 hours after challenge
# bone marrow-derived DC [9] = conditions: for IL-10 production from CpG-ODN- or LPS-stimulated DC: inhibitor 1 h (U0126 1.25-5 μM, SB203580 0.1-10 μM) before CpG-ODN 5 μg/ml or LPS 100 ng/ml, 24 h; for IL-12p70 production from TLR ligand-stimulated DC: inhibitor pre-incubation, LPS or CpG-ODN
# Experimental: as §1
# DC were pre-incubated for 1 h with the MEK 1/2 inhibitor (U0126) and then incubated for 15 min with medium only or with Pam3Cys, Zymosan, LPS, Flagellin, or CpG-ODN (1 or 5 μg/ml). […] DC were stimulated with medium only (0) or for 0.5, 1, 2, 4, 8 or 12 h with LPS (100 ng/ml). […] Cells treated with DMSO were used as negative controls.
# Superntants were removed, and aliquots was measured for IL-10, IL-12p70 and IL-6 by ELISA (FIG. 11).
# ERK = type: cell-based, mice
# Experimental: In certain experiments, the ERK or p38 inhibitors were added 1 hr before the TLR ligands. Cell lysates were resolved by SDS-PAGE, transferred to nitrocellulose membranes and blotted with antibodies specific for phospho-p38 (pp38; Cell Signal Technology, Mass., USA), or phospho-ERK (pERK; Santa Cruz Biotechnologies, USA) and a horseradish peroxidase-linked secondary antibody. The nitrocellulose was stripped and probed with antibodies specific for total p38 or total ERK.
# [10] = system: immature bone marrow-derived DC; assay: DC activation by TLR ligands, cytokine ELISA; conditions: 1 ng/ml-10 μg/ml TLR ligand, 24 h
# Experimental: After 24 h, supernatants were removed and IL-10, IL-12p40 and IL-12p70 concentrations determined by ELISA. NT, not tested (FIG. 9).
# [11] = system: draining lymph node cells; assay: Immunisation with KLH and TLR ligands, antigen-specific cytokine production by lymph node cells (ELISA); type: in vivo, BALB/c mice; conditions: s.c. KLH 5 μg alone or with adjuvant; lymph node cells day 7, KLH 50 μg/ml, 3 days
# [12] = CpG 10 μg alone or with various concentrations of NS-398, 24 h
# [13] = CpG 10 μg alone or with NS-398 1 or 10 μM, 24 h
# [14] = CpG 5 μg with inhibitor (U0126 5 μM or NS-398)
compound,measurement,setting,value
Cc1ccc(-c2cc(C(F)(F)F)nn2-c2ccc(S(N)(=O)=O)cc2)cc1 [Celecoxib],mice survived,B16 tumour cells [1],20%
CS(=O)(=O)Nc1ccc([N+](=O)[O-])cc1OC1CCCCC1 [NS-398],induction of IFN-gamma-secreting T cells (Th1) in vivo,[2],enhanced
same,induction of IL-10 secreting T cells in vivo,[2],suppressing
same,CpG-induced IL-10 production by dendritic cells,"bone marrow-derived DC [3]; CpG 5 μg with NS-398, 24 h",reverses
same,IL-10 production by DC,bone marrow-derived DC [3]; [12],suppressed
same,IL-12p40 (IL-12) production by DC,bone marrow-derived DC [3]; [12],enhanced
same,IL-12p35 mRNA expression in DC,bone marrow-derived DC [4]; [13],enhanced
same,IL-12p40 mRNA expression in DC,bone marrow-derived DC [4]; [13],enhanced
same,IL-27p28 mRNA expression in DC,bone marrow-derived DC [4]; [12],enhanced
same,CpG-induced IL-10 mRNA expression in DC,"bone marrow-derived DC [4]; CpG 10 μg with NS-398, 24 h",suppressed
same,CD80 expression (mean fluorescence intensity),CD80 on CD11c+ DC,neither Cox-2 nor HSP70 alone enhanced
same,CpG-induced PGE2 production by dendritic cells,[5]; [14],reverses
C[S+]([O-])c1ccc(-c2nc(-c3ccncc3)c(-c3ccc(F)cc3)[nH]2)cc1 (stereo not shown) [SB203580],induction of IFN-gamma-secreting T cells,[6],enhanced
same,induction of IL-10 secreting T cells,[6],suppressed
same,induction of IFN-gamma-secreting T cells (Th1) in vivo,[2],enhanced
same,induction of IL-10 secreting T cells in vivo,[2],suppressing
same,CpG-induced PGE2 production by dendritic cells,"[5]; DC treated with heat shocked and irradiated B16 cells 4 hours, CpG 5 μg, SB 203580 5 μM",reverses
same,CpG-induced IL-10 production by dendritic cells,bone marrow-derived DC [7],reverses
same,IL-12 production by dendritic cells,bone marrow-derived DC [7],enhancing
same,IL-23 production,bone marrow-derived DC [7],not affected
same,survival of mice,"B16 tumour cells [8]; DC activated with killed whole B16 cells alone or with CpG 5 μg, SB 203580 5 μM, days 3, 10 and 17",enhances survival
same,protective efficacy of tumour vaccine (tumour volumes),"B16 tumour cells [8]; DC activated with killed whole B16 cells and CpG 5 μg, SB203580 5 μM",enhances
same,protective efficacy of tumour vaccine (tumour volumes),"B16 tumour cells [8]; DC activated with killed whole B16 cells, SB 203580 5 μM",enhances
same,protective efficacy against B. pertussis challenge,Bordetella pertussis,significantly enhances
same,IFN-gamma responses,spleen mononuclear cells,enhanced
same,IL-10 responses,spleen mononuclear cells,reduced
same,local IL-1 beta in the lungs,IL-1 beta in lungs,enhanced
same,IL-10 production from CpG-ODN- or LPS-stimulated DC,bone marrow-derived DC [9],inhibited
same,IL-12p70 production from TLR ligand-stimulated DC,bone marrow-derived DC [9],enhanced
N#CC(=C(/N)Sc1ccccc1N)/C(C#N)=C(\N)Sc1ccccc1N [U0126],TLR-ligand induced ERK phosphorylation,ERK,inhibited
same,induction of IFN-gamma-secreting T cells (Th1) in vivo,[2],suppressed
same,induction of IL-10 secreting T cells in vivo,[2],suppressed
same,CpG-induced PGE2 production by dendritic cells,[5]; [14],reverses
same,enhancement of IL-12p70 production in DC from IL-10−/− mice,bone marrow-derived DC [9]; data not shown,retained
same,IL-10 production from CpG-ODN- or LPS-stimulated DC,bone marrow-derived DC [9],suppressed
same,IL-12p70 production from TLR ligand-stimulated DC,bone marrow-derived DC [9],enhanced
Flagellin,IL-10 production from DC,[10],induced production
same,IL-12p40 production from DC,[10],induced production
same,IL-12p70 production from DC,[10],induced production
Pam3CSK4,IL-10 production from DC,[10],induced production
same,IL-12p40 production from DC,[10],induced production
same,IL-12p70 production from DC,[10],induced production
lipopolysaccharide [LPS],KLH-specific IFN-gamma production,[11],high concentrations
same,KLH-specific IL-4 production,[11],low or undetectable
same,IL-10 production from DC,[10],induced production
same,IL-12p40 production from DC,[10],induced production
same,IL-12p70 production from DC,[10],induced production
same,time for which LPS-induced ERK phosphorylation was still evident,"ERK; LPS 100 ng/ml, 0.5-12 h",up to 8 hours
same,time of maximal LPS-induced ERK phosphorylation,"ERK; LPS 100 ng/ml, 0.5-12 h",30 min
